In patent US20040053383A1, “Crystals of cytochrome P450 2C9, structures thereof and their use” (ASTEX TECHNOLOGY LTD., priority 2001, published 2004):

Experiments:
1632 = target: T1, 1632 (Homo sapiens, UniProt P11712, C216Y/E288V/F295L/I215V/I222L/I223L/I99H/K206E/N289I/P221A/S220P/S286N/V292A); experiment: Inhibition assay on 2C9-2C19 chimera (Table 17); format: biochemical; conditions: chimera 1632, Table 17
T1 construct: is residue 30 (all numbering is in relation to the full length protein), and the last residue is residue 490; made in house; host or cells: E. coli XL1 Blue

1600 = target: T2, 1600 (Homo sapiens, UniProt P11712, C216Y/E288V/F295L/I215V/I222L/I223L/I331V/I99H/K206E/L362I/N289I/P221A/S220P/S286N/V292A); experiment: Inhibition assay on 2C9-2C19 chimera (Table 17); format: biochemical; conditions: chimera 1600, Table 17
T2 construct: is residue 30 (all numbering is in relation to the full length protein), and the last residue is residue 490; made in house; host or cells: E. coli XL1 Blue

1155 = target: T3, 1155 (Homo sapiens, UniProt P11712, C216Y/I215V/I222L/I223L/K206E/P221A/S220P); experiment: Inhibition assay with substrates/inhibitors of 2C19 and 2C9 (Table 17); format: biochemical; conditions: protein 1155, Table 17
T3 construct: is residue 30 (all numbering is in relation to the full length protein), and the last residue is residue 490; made in house; host or cells: E. coli XL1 Blue

1661 = target: T4, 1661 (Homo sapiens, UniProt P11712, C216Y/I215V/I222L/I223L/I99H/K206E/N289I/P221A/S220P/S286N); experiment: Inhibition assay on 2C9-2C19 chimera (Table 17); format: biochemical; conditions: chimera 1661, Table 17
T4 construct: is residue 30 (all numbering is in relation to the full length protein), and the last residue is residue 490; made in house; host or cells: E. coli XL1 Blue

2C19 = 2C19 (Homo sapiens, UniProt P33261); conditions: protein 2C19 (published), Table 17; cited from earlier work
2C9trunc = 2C9trunc (Homo sapiens, UniProt P11712); experiment: Inhibition assay with substrates/inhibitors of 2C9
2C9 = 2C9 (Homo sapiens, UniProt P11712); conditions: cited from earlier work; for Ki: read-out: 2C9 Published data, Ki, published
2C9-FGloop K206E = 2C9-FGloop K206E (Homo sapiens, UniProt P11712, C216Y/I215V/I222L/I223L/K206E/P221A/S220P); experiment: biochemical
Chain of 2C9-FGloop K206E (P11712 30-490 K206E/I215V/C216Y/S220P/P221A/I222L/I223L): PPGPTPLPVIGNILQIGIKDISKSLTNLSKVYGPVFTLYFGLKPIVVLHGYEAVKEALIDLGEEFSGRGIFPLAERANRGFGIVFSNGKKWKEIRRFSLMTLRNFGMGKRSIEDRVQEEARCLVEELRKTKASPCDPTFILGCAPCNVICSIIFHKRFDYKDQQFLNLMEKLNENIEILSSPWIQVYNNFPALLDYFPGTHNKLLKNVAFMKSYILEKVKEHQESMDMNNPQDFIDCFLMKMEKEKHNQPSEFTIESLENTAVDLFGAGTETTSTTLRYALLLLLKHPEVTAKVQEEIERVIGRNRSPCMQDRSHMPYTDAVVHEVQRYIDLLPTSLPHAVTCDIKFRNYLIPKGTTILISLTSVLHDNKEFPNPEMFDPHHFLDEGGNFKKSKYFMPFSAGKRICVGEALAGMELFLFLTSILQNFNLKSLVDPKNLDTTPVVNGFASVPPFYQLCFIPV

Chain of 2C9 (P11712 whole entry): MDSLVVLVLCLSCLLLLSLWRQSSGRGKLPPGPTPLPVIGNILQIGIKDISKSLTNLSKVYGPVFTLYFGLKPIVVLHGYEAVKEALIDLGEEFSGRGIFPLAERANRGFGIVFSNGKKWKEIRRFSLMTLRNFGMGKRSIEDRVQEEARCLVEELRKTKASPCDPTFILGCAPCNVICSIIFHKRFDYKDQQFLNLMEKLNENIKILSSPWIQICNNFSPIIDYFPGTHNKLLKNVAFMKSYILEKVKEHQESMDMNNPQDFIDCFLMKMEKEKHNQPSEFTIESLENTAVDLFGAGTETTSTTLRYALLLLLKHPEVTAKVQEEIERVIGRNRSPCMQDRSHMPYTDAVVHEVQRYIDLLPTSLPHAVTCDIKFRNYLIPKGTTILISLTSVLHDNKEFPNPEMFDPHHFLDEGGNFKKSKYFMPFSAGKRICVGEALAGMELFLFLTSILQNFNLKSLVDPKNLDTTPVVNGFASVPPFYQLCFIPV
Chain of 2C9trunc (P11712 30-490): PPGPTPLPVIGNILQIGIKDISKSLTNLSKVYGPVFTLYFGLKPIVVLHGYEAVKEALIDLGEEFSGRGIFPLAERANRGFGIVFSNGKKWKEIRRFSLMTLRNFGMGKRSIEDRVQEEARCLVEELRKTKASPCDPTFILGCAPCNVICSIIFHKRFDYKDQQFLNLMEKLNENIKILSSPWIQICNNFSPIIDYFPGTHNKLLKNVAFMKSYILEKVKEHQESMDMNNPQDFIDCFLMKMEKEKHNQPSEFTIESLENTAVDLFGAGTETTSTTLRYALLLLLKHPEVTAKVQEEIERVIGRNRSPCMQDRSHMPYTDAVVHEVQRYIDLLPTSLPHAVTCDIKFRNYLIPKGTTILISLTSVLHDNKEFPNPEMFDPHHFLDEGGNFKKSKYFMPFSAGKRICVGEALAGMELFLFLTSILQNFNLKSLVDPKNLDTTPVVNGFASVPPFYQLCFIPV
Chain of 2C19 (P33261 whole entry): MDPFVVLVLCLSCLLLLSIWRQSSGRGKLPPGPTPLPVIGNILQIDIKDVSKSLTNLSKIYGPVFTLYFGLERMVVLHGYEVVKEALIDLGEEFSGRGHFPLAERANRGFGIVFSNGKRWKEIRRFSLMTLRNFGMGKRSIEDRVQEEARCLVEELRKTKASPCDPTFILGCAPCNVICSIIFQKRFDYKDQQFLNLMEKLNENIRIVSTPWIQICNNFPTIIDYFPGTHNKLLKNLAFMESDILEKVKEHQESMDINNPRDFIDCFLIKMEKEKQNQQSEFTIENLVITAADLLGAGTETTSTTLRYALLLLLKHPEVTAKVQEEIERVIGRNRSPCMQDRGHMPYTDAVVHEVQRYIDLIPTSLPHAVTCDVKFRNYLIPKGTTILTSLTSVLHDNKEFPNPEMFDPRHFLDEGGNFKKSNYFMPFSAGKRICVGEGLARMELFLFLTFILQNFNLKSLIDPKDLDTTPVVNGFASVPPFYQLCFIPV
T1 sequence (P11712 30-490 I99H/K206E/I215V/C216Y/S220P/P221A/I222L/I223L/S286N/E288V/N289I/V292A/F295L): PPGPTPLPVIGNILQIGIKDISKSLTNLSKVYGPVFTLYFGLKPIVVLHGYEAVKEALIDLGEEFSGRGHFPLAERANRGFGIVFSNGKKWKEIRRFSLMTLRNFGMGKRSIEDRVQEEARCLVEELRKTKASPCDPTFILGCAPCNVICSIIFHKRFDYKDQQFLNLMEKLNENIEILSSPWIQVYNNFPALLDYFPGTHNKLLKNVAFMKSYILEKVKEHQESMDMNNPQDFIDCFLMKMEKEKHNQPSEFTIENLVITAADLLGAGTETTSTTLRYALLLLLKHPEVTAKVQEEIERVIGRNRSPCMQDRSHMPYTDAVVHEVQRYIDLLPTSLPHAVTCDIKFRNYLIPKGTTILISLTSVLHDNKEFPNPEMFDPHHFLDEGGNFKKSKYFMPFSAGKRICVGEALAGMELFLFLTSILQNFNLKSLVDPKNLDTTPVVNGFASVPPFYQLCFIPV
T4 sequence (P11712 30-490 I99H/K206E/I215V/C216Y/S220P/P221A/I222L/I223L/S286N/N289I): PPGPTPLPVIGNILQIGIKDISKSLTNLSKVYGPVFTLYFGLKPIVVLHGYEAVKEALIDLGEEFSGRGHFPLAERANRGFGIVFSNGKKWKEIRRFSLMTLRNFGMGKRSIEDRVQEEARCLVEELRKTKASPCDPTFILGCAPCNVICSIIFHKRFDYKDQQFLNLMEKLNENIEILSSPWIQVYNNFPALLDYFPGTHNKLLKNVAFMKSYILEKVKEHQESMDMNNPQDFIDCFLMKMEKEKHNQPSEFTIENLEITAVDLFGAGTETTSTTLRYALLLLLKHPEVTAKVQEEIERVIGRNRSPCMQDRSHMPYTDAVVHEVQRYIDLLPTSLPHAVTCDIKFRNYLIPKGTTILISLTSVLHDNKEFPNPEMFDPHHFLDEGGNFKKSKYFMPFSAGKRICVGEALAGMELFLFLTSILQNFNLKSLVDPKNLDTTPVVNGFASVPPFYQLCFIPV
T2 sequence (P11712 30-490 I99H/K206E/I215V/C216Y/S220P/P221A/I222L/I223L/S286N/E288V/N289I/V292A/F295L/I331V/L362I): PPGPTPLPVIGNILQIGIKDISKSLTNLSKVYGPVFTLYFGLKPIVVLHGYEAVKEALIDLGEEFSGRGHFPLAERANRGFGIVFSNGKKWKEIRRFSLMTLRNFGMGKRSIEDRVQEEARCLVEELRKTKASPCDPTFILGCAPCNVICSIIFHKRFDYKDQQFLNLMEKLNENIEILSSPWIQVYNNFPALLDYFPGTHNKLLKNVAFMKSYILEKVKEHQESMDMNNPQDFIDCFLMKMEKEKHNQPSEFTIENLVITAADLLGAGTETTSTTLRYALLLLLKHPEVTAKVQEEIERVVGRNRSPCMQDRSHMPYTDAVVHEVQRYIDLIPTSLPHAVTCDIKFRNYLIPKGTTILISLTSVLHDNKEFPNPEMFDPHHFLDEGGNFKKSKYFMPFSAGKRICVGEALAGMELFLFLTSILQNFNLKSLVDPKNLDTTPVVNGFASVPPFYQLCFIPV
T3 sequence (P11712 30-490 K206E/I215V/C216Y/S220P/P221A/I222L/I223L): as the sequence (P11712 30-490 K206E/I215V/C216Y/S220P/P221A/I222L/I223L) above

Compound	Ki 1632	Ki 1600	Ki 1155	Ki 1661	Ki (2C19)	IC50 (2C9trunc)	Ki (2C9trunc)	Ki (2C9)	IC50 (2C9-FGloop K206E)	Ki (2C9-FGloop K206E)	Km (2C9)
CN1C(C(=O)Nc2ccccn2)=C(O)c2ccccc2S1(=O)=O [Piroxicam]	> 100000 nM	> 100000 nM	30000 nM	> 100000 nM	133000 nM	–	–	–	–	–	–
O=C(O)Cc1ccccc1Nc1c(Cl)cccc1Cl [Diclofenac]	–	–	–	–	231000 nM	–	–	–	–	–	–
COCCCC/C(=N\OCCN)c1ccc(C(F)(F)F)cc1 [Fluvoxamine]	1600 nM	< 1000 nM	400 nM	500 nM	–	600 nM	700 nM	2000 to 5000 nM	400 nM	850 nM	–
CC(C)(c1ccc(O)cc1)c1ccc(O)cc1 [Bisphenol A]	–	–	–	–	–	4800 nM	2900 nM	–	7800 nM	3300 nM	4 µM
CNCCC(Oc1ccc(C(F)(F)F)cc1)c1ccccc1 (stereo not shown) [Fluoxetine]	–	–	–	–	–	1500 nM	1500 nM	13000 nM	2100 nM	4100 nM	–
